# Key:
# ISC-enriched organoids [1] = experiment: Primary screen, 384-well 2.5-D organoid differentiation (ENR+CD, 6 days): basal lysozyme secretion (LYZ.NS); assay type: cell-based, murine; conditions: primary screen; for Dose.FC.LYZ.NS: FC vs plate median; for Z.LYZ.NS: standard z score; for SSMD.LYZ.NS: strictly standardized mean difference; for Dose.FC.LYZ.NS (log 2 fold change): vs plate median
# Source text: (§1) High-throughput screening.
# ISC-enriched organoids [2] = experiment: Primary screen, 384-well 2.5-D organoid differentiation (ENR+CD, 6 days): carbachol-induced lysozyme secretion (LYZ.S); assay type: cell-based, murine; conditions: primary screen; for Dose.FC.LYZ.S: FC vs plate median; for Z.LYZ.S: standard z score; for SSMD.LYZ.S: strictly standardized mean difference; for Dose.FC.LYZ.S (log 2 fold change): vs plate median
# Source text: as §1
# ISC-enriched organoids [3] = experiment: Primary screen, 384-well 2.5-D organoid differentiation (ENR+CD, 6 days, Target Selective Inhibitor Library, vs whole-plate median): ATP (CellTiter-Glo 3D, CTG); conditions: primary screen; for Dose.FC.CTG: FC vs plate median; for Z.CTG: standard z score; for SSMD.CTG: strictly standardized mean difference; for Dose.FC.CTG (log 2 fold change): vs plate median
# [4] = 1st of the 4 dose lines of the treatment (dose not given)
# [5] = 2nd of the 4 dose lines of the treatment (dose not given)
# [6] = 3rd of the 4 dose lines of the treatment (dose not given)
# [7] = 4th of the 4 dose lines of the treatment (dose not given)
smiles,measurement,setting,value
O=C1[C@H](Cc2ccc(O)cc2)N2C(=O)CCN(C(=O)NCc3ccccc3)[C@H]2CN1Cc1cccc2ccccc12 [ICG-001],Dose.FC.LYZ.NS,ISC-enriched organoids [1]; Dose 0.08 uM,0.037 log 2 fold change
same,Z.LYZ.NS,ISC-enriched organoids [1]; Dose 0.08 uM,0.324
same,Dose.FC.LYZ.NS,ISC-enriched organoids [1]; Dose 0.40 uM,0.037 log 2 fold change
same,Z.LYZ.NS,ISC-enriched organoids [1]; Dose 0.40 uM,0.321
same,Dose.FC.LYZ.NS,ISC-enriched organoids [1]; Dose 2.00 uM,0.045 log 2 fold change
same,Z.LYZ.NS,ISC-enriched organoids [1]; Dose 2.00 uM,0.396
same,Dose.FC.LYZ.NS,ISC-enriched organoids [1]; Dose 10.00 uM,−0.125 log 2 fold change
same,Z.LYZ.NS,ISC-enriched organoids [1]; Dose 10.00 uM,−1.093
same,SSMD.LYZ.NS,ISC-enriched organoids [1]; [4],0.280
same,SSMD.LYZ.NS,ISC-enriched organoids [1]; [5],0.339
same,SSMD.LYZ.NS,ISC-enriched organoids [1]; [6],0.413
same,SSMD.LYZ.NS,ISC-enriched organoids [1]; [7],−1.162
same,Dose.FC.LYZ.S,ISC-enriched organoids [2]; Dose 0.08 uM,0.163 log 2 fold change
same,Dose.FC.LYZ.S,ISC-enriched organoids [2]; Dose 0.40 uM,0.204 log 2 fold change
same,Dose.FC.LYZ.S,ISC-enriched organoids [2]; Dose 2.00 uM,0.017 log 2 fold change
same,Dose.FC.LYZ.S,ISC-enriched organoids [2]; Dose 10.00 uM,−0.124 log 2 fold change
same,Z.LYZ.S,ISC-enriched organoids [2]; [4],1.054
same,Z.LYZ.S,ISC-enriched organoids [2]; [5],1.318
same,Z.LYZ.S,ISC-enriched organoids [2]; [6],0.109
same,Z.LYZ.S,ISC-enriched organoids [2]; [7],−0.802
same,SSMD.LYZ.S,ISC-enriched organoids [2]; [4],0.711
same,SSMD.LYZ.S,ISC-enriched organoids [2]; [5],0.796
same,SSMD.LYZ.S,ISC-enriched organoids [2]; [6],0.122
same,SSMD.LYZ.S,ISC-enriched organoids [2]; [7],−0.824
same,Dose.FC.CTG,ISC-enriched organoids [3]; Dose 0.08 uM,0.104 log 2 fold change
same,Z.CTG,ISC-enriched organoids [3]; Dose 0.08 uM,0.249
same,Dose.FC.CTG,ISC-enriched organoids [3]; Dose 0.40 uM,0.104 log 2 fold change
same,Z.CTG,ISC-enriched organoids [3]; Dose 0.40 uM,0.248
same,Dose.FC.CTG,ISC-enriched organoids [3]; Dose 2.00 uM,0.143 log 2 fold change
same,Z.CTG,ISC-enriched organoids [3]; Dose 2.00 uM,0.343
same,Dose.FC.CTG,ISC-enriched organoids [3]; Dose 10.00 uM,−0.416 log 2 fold change
same,Z.CTG,ISC-enriched organoids [3]; Dose 10.00 uM,−0.993
same,SSMD.CTG,ISC-enriched organoids [3]; [4],0.298
same,SSMD.CTG,ISC-enriched organoids [3]; [5],0.360
same,SSMD.CTG,ISC-enriched organoids [3]; [6],0.530
same,SSMD.CTG,ISC-enriched organoids [3]; [7],−0.731
CN1CCC(CNc2ccc3ncc(-c4cccc(OC(F)(F)F)c4)n3n2)CC1 [SGI-1776free base],Z.LYZ.NS (standard z score),ISC-enriched organoids [1]; Dose 0.08 uM,1.013
same,Dose.FC.LYZ.NS (log 2 fold change),ISC-enriched organoids [1]; Dose 0.08 uM,0.116
same,Z.LYZ.NS (standard z score),ISC-enriched organoids [1]; Dose 0.40 uM,0.362
same,Dose.FC.LYZ.NS (log 2 fold change),ISC-enriched organoids [1]; Dose 0.40 uM,0.042
same,Z.LYZ.NS (standard z score),ISC-enriched organoids [1]; Dose 2.00 uM,0.108
same,Dose.FC.LYZ.NS (log 2 fold change),ISC-enriched organoids [1]; Dose 2.00 uM,0.012
same,Z.LYZ.NS (standard z score),ISC-enriched organoids [1]; Dose 10.00 uM,−1.784
same,Dose.FC.LYZ.NS (log 2 fold change),ISC-enriched organoids [1]; Dose 10.00 uM,−0.205
same,Dose.FC.LYZ.S (log 2 fold change),ISC-enriched organoids [2]; Dose 0.08 uM,0.159
same,Dose.FC.LYZ.S (log 2 fold change),ISC-enriched organoids [2]; Dose 0.40 uM,0.088
same,Dose.FC.LYZ.S (log 2 fold change),ISC-enriched organoids [2]; Dose 2.00 uM,0.011
same,Dose.FC.LYZ.S (log 2 fold change),ISC-enriched organoids [2]; Dose 10.00 uM,−0.317
same,Z.CTG (standard z score),ISC-enriched organoids [3]; Dose 0.08 uM,0.407
same,Dose.FC.CTG (log 2 fold change),ISC-enriched organoids [3]; Dose 0.08 uM,0.170
same,Z.CTG (standard z score),ISC-enriched organoids [3]; Dose 0.40 uM,0.665
same,Dose.FC.CTG (log 2 fold change),ISC-enriched organoids [3]; Dose 0.40 uM,0.278
same,Z.CTG (standard z score),ISC-enriched organoids [3]; Dose 2.00 uM,0.506
same,Dose.FC.CTG (log 2 fold change),ISC-enriched organoids [3]; Dose 2.00 uM,0.212
same,Z.CTG (standard z score),ISC-enriched organoids [3]; Dose 10.00 uM,−2.468
same,Dose.FC.CTG (log 2 fold change),ISC-enriched organoids [3]; Dose 10.00 uM,−1.033
Cc1noc(-c2ccc(CSCCC(=O)O)cc2)c1NC(=O)OC(C)c1ccccc1Cl (centres unmarked) [Ki16425],Dose.FC.LYZ.NS,ISC-enriched organoids [1]; Dose 0.08 uM,0.001 log 2 fold change
same,Z.LYZ.NS,ISC-enriched organoids [1]; Dose 0.08 uM,0.005
same,Dose.FC.LYZ.NS,ISC-enriched organoids [1]; Dose 0.40 uM,0.117 log 2 fold change
same,Z.LYZ.NS,ISC-enriched organoids [1]; Dose 0.40 uM,1.017
same,Dose.FC.LYZ.NS,ISC-enriched organoids [1]; Dose 2.00 uM,−0.008 log 2 fold change
same,Z.LYZ.NS,ISC-enriched organoids [1]; Dose 2.00 uM,−0.069
same,Dose.FC.LYZ.NS,ISC-enriched organoids [1]; Dose 10.00 uM,−0.038 log 2 fold change
same,Z.LYZ.NS,ISC-enriched organoids [1]; Dose 10.00 uM,−0.327
same,SSMD.LYZ.NS,ISC-enriched organoids [1]; [4],0.006
same,SSMD.LYZ.NS,ISC-enriched organoids [1]; [5],0.483
same,SSMD.LYZ.NS,ISC-enriched organoids [1]; [6],−0.072
same,SSMD.LYZ.NS,ISC-enriched organoids [1]; [7],−0.246
same,Dose.FC.LYZ.S,ISC-enriched organoids [2]; Dose 0.08 uM,0.022 log 2 fold change
same,Dose.FC.LYZ.S,ISC-enriched organoids [2]; Dose 0.40 uM,0.114 log 2 fold change
same,Dose.FC.LYZ.S,ISC-enriched organoids [2]; Dose 2.00 uM,−0.021 log 2 fold change
same,Dose.FC.LYZ.S,ISC-enriched organoids [2]; Dose 10.00 uM,−0.071 log 2 fold change
same,Z.LYZ.S,ISC-enriched organoids [2]; [4],0.142
same,Z.LYZ.S,ISC-enriched organoids [2]; [5],0.739
same,Z.LYZ.S,ISC-enriched organoids [2]; [6],−0.135
same,Z.LYZ.S,ISC-enriched organoids [2]; [7],−0.459
same,SSMD.LYZ.S,ISC-enriched organoids [2]; [4],0.130
same,SSMD.LYZ.S,ISC-enriched organoids [2]; [5],0.421
same,SSMD.LYZ.S,ISC-enriched organoids [2]; [6],−0.133
same,SSMD.LYZ.S,ISC-enriched organoids [2]; [7],−0.394
same,Dose.FC.CTG,ISC-enriched organoids [3]; Dose 0.08 uM,−0.051 log 2 fold change
same,Z.CTG,ISC-enriched organoids [3]; Dose 0.08 uM,−0.121
same,Dose.FC.CTG,ISC-enriched organoids [3]; Dose 0.40 uM,−0.002 log 2 fold change
same,Z.CTG,ISC-enriched organoids [3]; Dose 0.40 uM,−0.005
same,Dose.FC.CTG,ISC-enriched organoids [3]; Dose 2.00 uM,−0.078 log 2 fold change
same,Z.CTG,ISC-enriched organoids [3]; Dose 2.00 uM,−0.185
same,Dose.FC.CTG,ISC-enriched organoids [3]; Dose 10.00 uM,−0.165 log 2 fold change
same,Z.CTG,ISC-enriched organoids [3]; Dose 10.00 uM,−0.394
same,SSMD.CTG,ISC-enriched organoids [3]; [4],−0.145
same,SSMD.CTG,ISC-enriched organoids [3]; [5],−0.008
same,SSMD.CTG,ISC-enriched organoids [3]; [6],−0.226
same,SSMD.CTG,ISC-enriched organoids [3]; [7],−0.527
